# From US20130035257A1, “MICROFLUIDIC ARRAYS AND METHODS FOR THEIR PREPARATION AND USE” (UNIVERSITY OF BRITISH COLUMBIA, priority 2011, published 2013)
# Legend:
# [1] = system: human MCF-7 breast tumor cells; details: MCF-7 cells in alginate-poly-L-lysine-alginate microcapsules, MTT assay; cited from earlier work
# [2] = system: LCC6/Her2 breast tumor cells; experiment: Cell proliferation rate of tumor spheroids on-chip from confocal cell counts; format: cell-based, human; details: 1600 nM Dox exposure, 2 days
# Procedure: (§1) Doxorubicin (Dox) is an anthracycline molecule that intercalates in DNA and inhibits topoisomerase II. As an anticancer agent, the drug inhibits RNA and DNA synthesis. During on-chip drug testing, the Dox solution was prepared with 0.2% dimethylsulfoxide (DMSO) and DMEM culture medium. After visual confirmation of spheroid formation at four days, the drug-free culture media was replaced with 400, 800, 1200, and 1600 nM Dox solutions. The drug solution was continuously perfused through the device at a rate of 0.25 μl min^−1 for two days. DMSO controls, in which the corresponding amount of DMSO in culture medium with no drug, were also carried out. Toxicity was examined after 48 h of drug dosing by quantifying cell viability.
# (§2) All stained samples were imaged using fluorescence microscopy. The imaging system consisted of a fluorescent microscope (Nikon TE2000U) and a cooled, color CCD camera (Retiga). […] The number of living cells NG was calculated by counting the number of pixels in the green (living cells) channel in the confocal images and normalizing for the size of one cell. The number of dead cells NR was similarly calculated using the red pixels. […]
# The survival rate was calculated as NG/(NG+NR). The proliferation rate is calculated as (N4−N1)/N1 before drug treatment, and as (N6−N4)/N4 after drug treatment, where Nx is the number of cells on the xth day. […]
# LCC6/Her2 cells = experiment: MTS assay of cell activity, cells cultured within alginate gel beads; format: cell-based, human; details: 48 h treatment with 800 nM doxorubicin
# Procedure: as §1
# For LCC6/Her2 cells cultured within alginate gel beads 100, cell activity as measured using the standard MTS assay was 35%, while cell viability as measured using the Live/Dead stains was 83%, in both cases after 48 h treatment with 800 nM doxorubicin. […] Thus, the absolute number of surviving cells, in addition to the percentage of living or dead cells, may be an important parameter in drug screening. This can be obtained by processing the data from image-based high-throughput screening systems.
# in vitro = format: cell-based; details: human
# Procedure: as §1
# (§3) Cell viability was indicated with live/dead calcein AM/ethidium homodimer-1 stains (Invitrogen), which were applied through pressure-driven flow control to the cells while they were entrapped in alginate in the microdevice. […]
# as §2, with “microscopy.” for “microscopy. The imaging system consisted of a fluorescent microscope (Nikon TE2000U) and a cooled, color CCD camera (Retiga).”
# (§4) The survival rate was calculated as NG/(NG+NR). The proliferation rate is calculated as (N4−N1)/N1 before drug treatment, and as (N6−N4)/N4 after drug treatment, where Nx is the number of cells on the xth day.
# (§5) Images from confocal microscopy were used to determine cell survival rate and proliferation inside the three dimensional multicellular aggregates after exposure to different doxorubicin concentrations. […] Doxorubicin was the perfused with (a) 0, (b) 400, (c) 800, (d) 1200, and (e) 1600 nM doxorubicin for two days, and cell viability was measured at the end of that period after staining with a live/dead viability kit and confocal imaging. […] The number of living cells NG was calculated by counting the number of pixels (living cells) channel in the confocal image and normalizing for the size of one cell. […]
# [3] = system: EMT-6 mammary sarcoma cells; details: EMT-6 spheroids created in a spinner flask, different exposure doses; cited from earlier work
# A549 human lung cells = details: cited from earlier work
# [4] = system: LCC6/Her2 breast tumor cells; experiment: in vitro; format: cell-based
# Procedure: as §1, §3
# as §2, with “microscopy.” for “microscopy. The imaging system consisted of a fluorescent microscope (Nikon TE2000U) and a cooled, color CCD camera (Retiga).”
# as §4, §5
# [5] = at 25° C.; cited from earlier work
structure (smiles),measurement,setting,value
CO[C@@]12[C@H](COC(N)=O)C3=C(C(=O)C(C)=C(N)C3=O)N1C[C@@H]1N[C@@H]12 [mitomycin C],inhibition rates in multicellular spheroids versus monolayers,[1],lower inhibition rates in multicellular spheroids than in monolayers
"COc1cccc2c1C(=O)c1c(O)c3c(c(O)c1C2=O)C[C@@](O)(C(=O)CO)C[C@@H]3O[C@H]1C[C@H](N)[C@H](O)[C@H](C)O1 [doxorubicin, Doxorubicin]",proliferation rate change (FIG. 10),[2],marked proliferation decrease
same,cell activity as measured using the standard MTS assay,LCC6/Her2 cells,35%
same,inhibition rates in multicellular spheroids versus monolayers,[1],lower inhibition rates in multicellular spheroids than in monolayers
same,"cytotoxicity at 48 h, 1600 nM",in vitro,20%
same,"viability at 48 h, 800 nM",in vitro,83%
same,resistance of spheroids versus monolayer cells,[3],higher resistance
same,"multicellular resistance index, ratio [IC50, spheroid/IC50, monolayer]",A549 human lung cells,35
O=c1[nH]cc(F)c(=O)[nH]1 [5-fluorouracil],inhibition rates in multicellular spheroids versus monolayers,[1],lower inhibition rates in multicellular spheroids than in monolayers
CC[C@]1(O)C[C@@H]2CN(CCc3c([nH]c4ccccc34)[C@@](C(=O)OC)(c3cc4c(cc3OC)N(C)[C@H]3[C@@](O)(C(=O)OC)[C@H](OC(C)=O)[C@]5(CC)C=CCN6CC[C@]43[C@@H]65)C2)C1 [vinblastine],"multicellular resistance index, ratio [IC50, spheroid/IC50, monolayer]",A549 human lung cells,6625
"CCCCCCCCCCCCCCCC [Hexadecane, n-hexadecane]","additional toxicity from droplet formation solvent (survival rate, bead versus microchannel)",[4],did not indicate any additional toxicity effects
same,solubility in the aqueous phase,[5],9.0×10^−8 g/100 g water
